Results from paper PMC6465078 (Molecular pharmaceutics, 2018).
Counter-ions that a name gives are not always drawn.

How the values were obtained:
OSTα/β [1] = molecular target: T1, OSTα/β (Homo sapiens, UniProt Q86UW1); assay: Inhibition of OSTα/β-mediated DHEAS uptake in OSTα/β-overexpressing Flp-In 293; assay type: cell-based; conditions: for Inhibition of OSTα/β-mediated DHEAS uptake: inhibitor 100 µM, DHEAS 20 µM; for Inhibition of OSTα/β-mediated DHEAS uptake (screening): Method 1 (10 min preincubation), test compound 100 µM; for Maximal inhibition of OSTα/β-mediated DHEAS uptake: Method 1, up to 200 µM inhibitor
T1 sequence (Q86UW1 1-340): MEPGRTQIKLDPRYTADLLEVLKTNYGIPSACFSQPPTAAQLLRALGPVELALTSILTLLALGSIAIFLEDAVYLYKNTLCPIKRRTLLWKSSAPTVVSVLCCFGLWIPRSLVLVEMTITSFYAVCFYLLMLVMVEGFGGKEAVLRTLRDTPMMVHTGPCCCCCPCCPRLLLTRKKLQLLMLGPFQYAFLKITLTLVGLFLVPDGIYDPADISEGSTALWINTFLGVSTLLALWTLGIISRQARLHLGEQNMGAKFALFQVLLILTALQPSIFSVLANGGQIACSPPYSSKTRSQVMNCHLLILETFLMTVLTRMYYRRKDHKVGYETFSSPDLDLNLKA
T1 sequence (Q86UW2 1-128 partner): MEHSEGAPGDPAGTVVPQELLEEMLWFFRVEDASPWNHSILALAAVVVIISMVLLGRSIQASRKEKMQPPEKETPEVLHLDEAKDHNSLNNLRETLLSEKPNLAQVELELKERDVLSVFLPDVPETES

OSTα/β [2] = molecular target: T1, OSTα/β; assay: Inhibition of OSTα/β-mediated taurocholate; assay type: cell-based; conditions: for Inhibition of OSTα/β-mediated TCA uptake (statistical significance): Methods 1-3, method not specified; for inhibition at 100 µM: read-out: Inhibition of OSTα/β-mediated TCA uptake
OSTα/β [3] = conditions: cited from earlier work
[4] = cited from earlier work
ABCB11 = conditions: cited from earlier work
ABCC3 = conditions: cited from earlier work
OSTα/β [5] = conditions: single concentration of 100–1000 μM; cited from earlier work
[6] = Concentration in hepatocyte cultures; assay type: in vitro ADME; conditions: equivalent of ~700 ng/mg protein
OSTα/β [7] = molecular target: T1, OSTα/β; conditions: cell line ectopically expressing human OSTα/β; cited from earlier work
[8] = cited from earlier work; remark: listed apart in the source
ABCC4 = conditions: cited from earlier work
OSTα/β [9] = molecular target: T1, OSTα/β; assay: Inhibition of OSTα/β-mediated digoxin uptake in OSTab cells; assay type: cell-based; conditions: read-out: Inhibition of OSTα/β-mediated digoxin uptake
[10] = Flp-In-293, read-out: Inhibition of OSTα/β-mediated DHEAS uptake
[11] = Flp-In-293, read-out: Inhibition of OSTα/β-mediated DHEAS uptake (screening)
[12] = Method 2 (co-incubation only), 30 s uptake

## COc1ccc2c(c1)c(CC(=O)O)c(C)n2C(=O)c1ccc(Cl)cc1 [indomethacin]
OSTα/β [1]; [10]
  inhibition at 100 µM: ~20%
OSTα/β [1]; [11]
  inhibition at 100 µM: 5 to 23%
OSTα/β [1]; [12]
  Inhibition of OSTα/β-mediated DHEAS uptake: no inhibition
OSTα/β [2]; inhibitor 100 µM, TCA 20 µM
  Inhibition of OSTα/β-mediated TCA uptake (statistical significance): did not reach statistical significance

## CC(C)/N=c1\cc2n(-c3ccc(Cl)cc3)c3ccccc3nc-2cc1Nc1ccc(Cl)cc1 [clofazimine]
OSTα/β [3]
  OSTα/β inhibitor identification in screen of 1,280 FDA-approved drugs: OSTα/β inhibitor

## C#C[C@]1(O)CC[C@H]2[C@@H]3CCc4cc(O)ccc4[C@H]3CC[C@@]21C [ethinylestradiol]
[4]
  Associated cases of DILI: more than 100 cases
ABCB11; ref Supporting Table 1
  Interaction with ABCB11: interact
ABCC3; ref Supporting Table 1
  Interaction with ABCC3: interact

## CCCN(CCC)S(=O)(=O)c1ccc(C(=O)O)cc1 [probenecid]
OSTα/β [1]; [11]
  inhibition at 100 µM: 5 to 23%

## O=C(O)[C@H]1/C(=C/CO)O[C@@H]2CC(=O)N21 [clavulanic acid]
OSTα/β [1]; DHEAS 4 µM, 30 s uptake
  Inhibition of OSTα/β-mediated DHEAS uptake (screening): decreased
[4]
  Associated cases of DILI: more than 100 cases

## O=C1[C@H](CC[C@H](O)c2ccc(F)cc2)[C@@H](c2ccc(O)cc2)N1c1ccc(F)cc1 [ezetimibe]
OSTα/β [1]; DHEAS 4 µM, 30 s uptake
  Inhibition of OSTα/β-mediated DHEAS uptake (screening): could not be reproduced

## CC1(C)S[C@@H]2[C@H](NC(=O)[C@H](N)c3ccc(O)cc3)C(=O)N2[C@H]1C(=O)O [amoxicillin]
OSTα/β [1]; DHEAS 4 µM, 30 s uptake
  Inhibition of OSTα/β-mediated DHEAS uptake (screening): decreased
[4]
  Associated cases of DILI: more than 100 cases

## C[C@H]1c2cccc(O)c2C(=O)C2=C(O)[C@]3(O)C(=O)C(C(N)=O)=C(O)[C@@H](N(C)C)[C@@H]3[C@@H](O)[C@@H]21 [doxycycline]
OSTα/β [1]; [11]
  inhibition at 100 µM: ~19%

## C#C[C@]1(OC(C)=O)CC[C@H]2[C@@H]3CCC4=CC(=NO)CC[C@@H]4[C@H]3CC[C@@]21CC (mixture of isomers) [norgestimate]
OSTα/β [1]; [11]
  inhibition at 100 µM: 35 to 64%
OSTα/β [1]; DHEAS 4 µM
  Maximal inhibition of OSTα/β-mediated DHEAS uptake: less than 50%
[4]
  Associated cases of DILI: more than 100 cases

## C[C@H](CCC(=O)NCCS(=O)(=O)O)[C@H]1CC[C@H]2[C@@H]3CC[C@@H]4C[C@H](OS(=O)(=O)O)CC[C@]4(C)[C@H]3CC[C@]12C [TLCAS, taurolithocholic acid sulfate]
OSTα/β [2]; Method 2 (co-incubation only), 100 µM, TCA 20 µM
  Stimulation of OSTα/β-mediated TCA uptake: ~ 25%
OSTα/β [2]; inhibitor 100 µM, TCA 20 µM
  Inhibition of OSTα/β-mediated TCA uptake (statistical significance): did not reach statistical significance
OSTα/β [5]
  Inhibition of OSTα/β-mediated TCA and ES uptake: inhibited

## O=C1OC(c2ccc(O)c(S(=O)(=O)O)c2)(c2ccc(O)c(S(=O)(=O)O)c2)c2c(Br)c(Br)c(Br)c(Br)c21 [sulfobromophthalein]
OSTα/β [1]; [11]
  inhibition at 100 µM: 5 to 23%

## Cc1c(C)c2c(c(C)c1OS(=O)(=O)O)CCC(C)(COc1ccc(CC3SC(=O)NC3=O)cc1)O2 (centres unmarked) [troglitazone sulfate]
[6]
  Concentration in hepatocyte cultures, molar equivalent: ~ 190 µM
OSTα/β [7]
  Inhibition of OSTα/β-mediated TCA transport: inhibited
[8]
  Concentration in hepatocyte cultures: ~ 700 ng/mg protein
ABCB11
  Inhibition of ABCB11: inhibits
ABCC4
  Inhibition of ABCC4: inhibits

## C[C@H]1O[C@@H](O[C@H]2[C@@H](O)C[C@H](O[C@H]3[C@@H](O)C[C@H](O[C@H]4CC[C@@]5(C)[C@H](CC[C@@H]6[C@@H]5C[C@@H](O)[C@]5(C)[C@@H](C7=CC(=O)OC7)CC[C@]65O)C4)O[C@@H]3C)O[C@@H]2C)C[C@H](O)[C@@H]1O [digoxin]
OSTα/β [1]; [11]
  inhibition at 100 µM: 5 to 23%

## Cc1c(C)c2c(c(C)c1O)CCC(C)(COc1ccc(CC3SC(=O)NC3=O)cc1)O2 (centres unmarked) [troglitazone]
OSTα/β [1]; DHEAS 4 µM, 30 s uptake
  Inhibition of OSTα/β-mediated DHEAS uptake (screening): novel OSTα/β inhibitors
OSTα/β [1]; Method 1, 0.125–200 µM inhibitor, DHEAS 4 µM, 30 s uptake
  IC50 for inhibition of OSTα/β-mediated DHEAS uptake: did not yield a consistent inhibition curve

## CC(=O)S[C@@H]1CC2=CC(=O)CC[C@]2(C)[C@H]2CC[C@@]3(C)[C@@H](CC[C@@]34CCC(=O)O4)[C@H]12 [spironolactone]
OSTα/β [1]; [10]
  inhibition at 100 µM: ~20%
OSTα/β [1]; [12]
  Inhibition of OSTα/β-mediated DHEAS uptake: no inhibition
OSTα/β [2]
  inhibition at 100 µM: ~20%
OSTα/β [5]
  Inhibition of OSTα/β-mediated TCA and ES uptake: inhibited

## CC(C)c1nc(N(C)S(C)(=O)=O)nc(-c2ccc(F)cc2)c1/C=C/[C@@H](O)C[C@@H](O)CC(=O)O [rosuvastatin]
OSTα/β [1]; DHEAS 4 µM, 30 s uptake
  Inhibition of OSTα/β-mediated DHEAS uptake (screening): did not inhibit OSTα/β

## CC[C@H](C)C(=O)O[C@H]1C[C@@H](C)C=C2C=C[C@H](C)[C@H](CC[C@@H]3C[C@@H](O)CC(=O)O3)[C@H]21 [lovastatin]
OSTα/β [1]; [11]
  inhibition at 100 µM: ~21%

## CCc1c(Cl)c(O)c(Cl)c(O)c1C(=O)O[C@H]1[C@H](O)[C@H](OC)[C@H](OC/C2=C\C=C\C[C@H](O)/C(C)=C/[C@H](CC)[C@@H](O[C@@H]3OC(C)(C)[C@@H](OC(=O)C(C)C)[C@H](O)[C@@H]3O)/C(C)=C/C(C)=C/C[C@@H]([C@@H](C)O)OC2=O)O[C@@H]1C [fidaxomicin]
OSTα/β [1]; [11]
  inhibition at 100 µM: 71%
OSTα/β [1]; Method 1 (10 min preincubation only), 30 s uptake
  Inhibition of OSTα/β-mediated DHEAS uptake: inhibited DHEAS uptake
OSTα/β [2]; Method 2 (co-incubation only), inhibitor 100 µM, TCA 20 µM, 30 s uptake
  Inhibition of OSTα/β-mediated TCA uptake: > 70%
OSTα/β [2]
  inhibition at 100 µM: > 70%
OSTα/β [9]
  inhibition at 100 µM: 90%
OSTα/β [7]
  Inhibition of OSTα/β-mediated TCA transport: inhibited
ABCC3
  Inhibition of ABCC3: inhibit

## C[C@H](CCC(=O)NCC(=O)O)[C@H]1CC[C@H]2[C@@H]3[C@H](O)C[C@@H]4C[C@H](O)CC[C@]4(C)[C@H]3CC[C@]12C [glycochenodeoxycholate]
OSTα/β [1]; DHEAS 4 µM
  Maximal inhibition of OSTα/β-mediated DHEAS uptake: less than 50%
